By IC50 is commonly meant the concentration at which inhibition is half-maximal.

In ChEMBL document CHEMBL1145133, “Thienyl and phenyl alpha-halomethyl ketones: new inhibitors of glycogen synthase kinase (GSK-3beta) from a library of compound searching” (J Med Chem, 2003) one finds IC50 data, which are given here for 25 compounds.

Where only a bound is given, the exact number is not on record here.

In assay [1] the target is T1, cAMP-dependent protein kinase (PKA) (Homo sapiens, UniProt P22694+P17612+P22612). Description: Inhibitory activity against protein kinase A (PKA ). The class given is protein assay.
Assay [2] has as its target Glycogen synthase kinase-3 beta (Homo sapiens, UniProt P49841). Description: Inhibitory activity against glycogen synthase kinase-3 (GSK-3beta).
The target of assay [3] is T1, cAMP-dependent protein kinase (PKA). The experiment in a line: Inhibition of protein kinase A (PKA). The class given is protein assay.

Sequence of Glycogen synthase kinase-3 beta (P49841 whole entry): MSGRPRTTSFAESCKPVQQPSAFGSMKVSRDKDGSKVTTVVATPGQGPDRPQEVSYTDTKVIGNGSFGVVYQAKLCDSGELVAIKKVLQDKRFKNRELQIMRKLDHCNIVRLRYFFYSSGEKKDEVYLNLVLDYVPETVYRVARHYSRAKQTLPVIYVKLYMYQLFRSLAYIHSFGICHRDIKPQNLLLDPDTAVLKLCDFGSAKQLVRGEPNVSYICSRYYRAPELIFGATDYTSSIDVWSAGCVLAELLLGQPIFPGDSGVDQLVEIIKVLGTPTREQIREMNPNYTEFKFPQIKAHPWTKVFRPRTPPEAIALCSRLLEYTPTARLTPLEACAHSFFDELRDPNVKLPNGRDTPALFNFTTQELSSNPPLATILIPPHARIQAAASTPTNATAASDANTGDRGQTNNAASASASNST

Take `CC(=O)c1csc(C(=O)CCl)c1`: the IC50 in assay [1] was over 100 µM; in assay [2] it was 8 µM. Taken in the same sequence, the figures for `O=C(CBr)c1ccccc1` were over 100 µM and 5 µM. Regarding `O=C(CCl)c1cc(Cl)c(Cl)s1`, the concentration for half-maximal inhibition (IC50) in assay [2] was 2.5 µM. Same read-out and setting: for `Cc1csc(C(=O)CCl)c1` the value was over 100 µM. Still for that read-out and setting: for `Cc1cc(C(=O)CCl)c(C)s1` the value was over 100 µM. As for `O=C(CBr)c1ccc(Br)cc1`, the IC50 in assay [1] was over 100 µM; in assay [2], 0.5 µM. Taken in the same sequence, the figures for `O=C(CCl)c1csc(C(=O)CCl)c1` were over 100 µM and 1.5 µM. In turn, `Cc1ccsc1C(=O)CCl` showed an IC50 in assay [2] of 75 µM. As to `Cc1c(C(=O)CCl)csc1C(=O)CCl`, the results for the IC50 in assay [1] and in assay [2] were over 100 µM and 5 µM, respectively. In assay [2], `Cc1ccc(C(=O)CCl)s1` displayed a 50% inhibitory concentration (IC50) of over 100 µM. Consider `O=C(CCl)c1cc(Br)c(Br)s1`, for which the concentration for half-maximal inhibition (IC50) in assay [1] is over 100 µM; in assay [2], 1 µM. With `O=C(CCl)c1c(Br)sc(Br)c1Br`, in assay [2], the IC50 came out at 1 µM. Regarding `O=C(CCl)c1cscc1Cl`, the figures for the IC50 in assay [1] and in assay [2] were over 100 µM and 25 µM, respectively. In assay [2], `Cc1sc(C(=O)CCl)cc1C(=O)CCl` returned a 50% inhibitory concentration (IC50) of 5 µM. As to `O=C(CCl)c1scc(Br)c1Br`, the half-inhibitory concentration (IC50) was over 100 µM in assay [1] and 0.5 µM in assay [2]. Taken in the same sequence, the figures for `O=C(CCl)c1ccc(Br)s1` were over 100 µM and 10 µM. For `O=C(CBr)c1ccc(-c2ccccc2)cc1`, the half-maximal inhibitory concentration (IC50) in assay [1] is over 100 µM; in assay [2], 2.5 µM. In turn, `CC(=O)c1ccc(C(=O)CCl)s1` came in with a half-inhibitory concentration (IC50) in assay [2] of 50 µM. In turn, `O=C(CCl)c1cccs1` yielded a 50% inhibitory concentration (IC50) in assay [2] of 50 µM.

Take `O=C(CCl)c1ccc(Cl)cc1`: the values for the IC50 in assay [1] and in assay [2] were over 100 µM and 2.5 µM, respectively. The corresponding values for `O=C(CCl)c1cc(Cl)sc1Cl` are over 100 µM and 5 µM. Turning to `O=C(CCl)c1cc(Br)cs1`, the IC50 in assay [2] came out at 3 µM. For the compound `O=C(CCl)c1c(Br)sc(Cl)c1Cl`, the half-maximal inhibitory concentration (IC50) was 2 µM in assay [2] and over 100 µM in assay [3]. In assay [2], `O=C(CCl)c1ccccc1` [PHENACYL CHLORIDE] showed an IC50 of 50 µM. For the compound `O=C(CCl)c1ccc(Cl)s1`, the figures for the concentration for half-maximal inhibition (IC50) in assay [1] and in assay [2] were over 100 µM and 10 µM, respectively.
